Measured values taken from patent publication US5258406A, “Sulfonimidamides” (priority 1992, dated 1993).
Read-outs that look alike come from different tables or passages of the source.

Test system: 6C3HED lymphosarcoma
Test: animal or person
Type: in vivo
Details: for inhibition in vivo at 25 mg/kg: read-out: % inhibition of tumor growth, oral, 25 mg/kg, BIDX 8; for inhibition in vivo at 50 mg/kg: read-out: % inhibition of tumor growth, oral, 50 mg/kg, BIDX 8; for inhibition in vivo at 100 mg/kg: read-out: % inhibition of tumor growth, oral, 100 mg/kg, BIDX 8
Procedure: The compounds were tested in C3H mice bearing a 6C3HED lymphosarcoma, also known as the Gardner lymphosarcoma (GLS), and in a variety of human tumor xenografts in CD1 nu/nu mice, including CX-1, LX-1, HXGC3, and VRC5. The 6C3HED lymphosarcoma was obtained from the Division of Cancer Treatment, National […] Institute, Tumor Bank, maintained at E. G. and G. Mason Research (Worcester, Mass.). The CX-1 human colon carcinoma and the LX-1 human lung carcinoma xenografts were obtained from the National Cancer Institute. The HXGC3 and VRC5 human colon xenografts were obtained from Dr. P. J. Houghton, St. Jude Children's Hospital in Memphis (see Br. J. Cancer, 37, 213 (1978)). First passage tumor was stored in liquid nitrogen using standard techniques. The transplanted tumor was reestablished from the Tumor Bank every six months or as needed. The tumor was maintained by serial passage twice weekly in C3H mice.
In the procedure the tumor was removed from passage animals and minced into 1- to 3-mm square fragments using sterile techniques. Tumor pieces were checked for sterility using both Antibiotic Medium 1 and Brain Heart Infusion (Difco, Detroit, Mich.). Recipient mice were shaved and tumor pieces were implanted subcutaneously in the auxiliary region by trocar. Drug therapy on the appropriate schedule was initiated on the day after tumor implant for 6C3HED and after a seven (7) day delay for xenografts (or other delay as noted in Table 2). The compound being tested was mixed with 2.5% Emulphor EL620 from GAF Corporation (1:40 dilution in saline). Food and water were provided ad libitium. The drug was administered orally in 0.5 ml of 2.5% Emulphor (unless otherwise indicated). The tumor was measured the day after treatment ended with two dimensional measurements (width and length) of the tumor taken using automated digital calipers interfaced to a microcomputer. Approximate weight for the tumor was calculated using the following formula [Worzalla, J. F., et al., Invest. New Drugs, 8, 241 (1990], (tumor weight in mg)=(width in mm)^2 ×(length in mm)/2.
At least one control group of an equal number of mice was treated with the same volume of 2.5% Emulphor only. The percent inhibition was determined by subtracting the ratio of the mean tumor size of the test group relative to the control group from one and multiplying the result times 100.
The results of several experiments in mice bearing a 6C3HED lymphosarcoma (or other tumor where indicated) when the indicated compounds were administered are provided in Table 2. In Table 2, column 1 gives the Example number of the compound used, column 2 lists the dose level in mg/kg, column 3 provides the percent inhibition of tumor growth, column 4 gives the number of mice which died relative to the total number of animals in the group, column 5 gives the method of administration of the compound, and column 6 gives the dosage schedule. The protocol used with other tumors was the same as with the 6C3HED lymphosarcoma.

[1] = Mus musculus, 6C3HED, po, read-out: % inhibition of tumor growth, oral, 150 mg/kg, BIDX 8
[2] = Mus musculus, 6C3HED, po, read-out: % inhibition of tumor growth, oral, 300 mg/kg, BIDX 8

CCc1ccc(S(=N)(=O)NC(=O)Nc2ccc(Cl)cc2)cc1 (centres unmarked) [Example 33, N-[[(4-chlorophenyl)amino]carbonyl]-4-ethylbenzenesulfonimidamide]
inhibition in vivo at 6.25 mg/kg (Mus musculus, 6C3HED, po, read-out: % inhibition of tumor growth, oral, 6.25 mg/kg, BIDX 8): 36%
inhibition in vivo at 12.5 mg/kg (Mus musculus, 6C3HED, po, read-out: % inhibition of tumor growth, oral, 12.5 mg/kg, BIDX 8): 60%
inhibition in vivo at 25 mg/kg (Mus musculus, 6C3HED, po): 91%
inhibition in vivo at 50 mg/kg (Mus musculus, 6C3HED, po): 98%
inhibition in vivo at 100 mg/kg (Mus musculus, 6C3HED, po): 99%
inhibition in vivo at 150 mg/kg [1]: 100%
inhibition in vivo at 300 mg/kg [2]: 100%
Tox/Tot (mice which died / total) (oral, 6.25 mg/kg, BIDX 8): 0/10
Tox/Tot (mice which died / total) (oral, 12.5 mg/kg, BIDX 8): 0/9
Tox/Tot (mice which died / total) (oral, 25 mg/kg, BIDX 8): 2/10
Tox/Tot (mice which died / total) (oral, 50 mg/kg, BIDX 8): 1/10
Tox/Tot (mice which died / total) (oral, 100 mg/kg, BIDX 8): 0/10
Tox/Tot (mice which died / total) (oral, 150 mg/kg, BIDX 8): 8/10
Tox/Tot (mice which died / total) (oral, 300 mg/kg, BIDX 8): 8/10

CN=S(=O)(NC(=O)Nc1ccc(Cl)cc1)c1ccc2c(c1)CCC2 (centres unmarked) [Example 55, N-[[(4-chlorophenyl)amino]carbonyl]-N'-methyl-5-indanylsulfonimidamide]
inhibition in vivo at 75 mg/kg (Mus musculus, 6C3HED, po, read-out: % inhibition of tumor growth, oral, 75 mg/kg, BIDX 8): 70%
inhibition in vivo at 150 mg/kg [1]: 75%
Tox/Tot (mice which died / total) (oral, 75 mg/kg, BIDX 8): 0/10
Tox/Tot (mice which died / total) (oral, 150 mg/kg, BIDX 8): 1/10

Cc1ccc(S(=N)(=O)NC(=O)Nc2ccc(Br)cc2)cc1 (centres unmarked) [Example 22, N-[[(4-bromophenyl)amino]carbonyl]-4-methylbenzenesulfonimidamide]
inhibition in vivo at 150 mg/kg [1]: 100%
inhibition in vivo at 300 mg/kg [2]: 100%
Tox/Tot (mice which died / total) (oral, 150 mg/kg, BIDX 8): 0/10
Tox/Tot (mice which died / total) (oral, 300 mg/kg, BIDX 8): 3/10

N=S(=O)(NC(=O)Nc1ccc(Cl)cc1)c1ccc(C=O)cc1 (centres unmarked) [Example 51, N-[[(4-chlorophenyl)amino]carbonyl]-4-formylbenzenesulfonimidamide]
Tox/Tot (mice which died / total) (IP, 150 mg/kg, DX 8): 0/10
Tox/Tot (mice which died / total) (IP, 300 mg/kg, DX 8): 9/10
inhibition in vivo at 150 mg/kg (Mus musculus, 6C3HED, ip, read-out: % inhibition of tumor growth, IP, 150 mg/kg, DX 8): 80%
inhibition in vivo at 300 mg/kg (Mus musculus, 6C3HED, ip, read-out: % inhibition of tumor growth, IP, 300 mg/kg, DX 8): 99%

NS(=O)(=NC(=O)Nc1ccc(Cl)cc1)c1ccc(Cl)cc1 (centres unmarked) [Example 27]
inhibition in vivo at 25 mg/kg (Mus musculus, 6C3HED, po): 39%
inhibition in vivo at 50 mg/kg (Mus musculus, 6C3HED, po): 80%
inhibition in vivo at 100 mg/kg (Mus musculus, 6C3HED, po): 100%
Tox/Tot (mice which died / total) (oral, 25 mg/kg, BIDX 8): 0/10
Tox/Tot (mice which died / total) (oral, 50 mg/kg, BIDX 8): 0/10
% inhibition of tumor growth (oral, 100 mg/kg, BIDX 8): 94%
% inhibition of tumor growth (oral, 200 mg/kg, BIDX 8): TOX
Tox/Tot (mice which died / total) (oral, 200 mg/kg, BIDX 8): 10/10

Cc1ccc(S(=O)(=NC(=O)Nc2ccc(Cl)cc2)NCc2ccccc2)cc1 (centres unmarked) [Example 12]
inhibition in vivo at 150 mg/kg [1]: 73%
inhibition in vivo at 300 mg/kg [2]: 87%
Tox/Tot (mice which died / total) (oral, 150 mg/kg, BIDX 8): 0/9
Tox/Tot (mice which died / total) (oral, 300 mg/kg, BIDX 8): 1/10
